Source: patent US20050187409A1, “Inhibitors of RNase P proteins as antibacterial compounds” (priority 2003, published 2005)
Converted amounts (≈) assume the structure as drawn. “And” between values parts separate entries of the source, which are not always exact repeats. Equal values may be shown once. Read-outs that look alike come from different tables or passages of the source.

Columns and labels:
[1] = molecular target: T1, N. gonorrhoeae RNase P holoenzyme (Neisseria gonorrhoeae, UniProt Q5F4W3); assay: biochemical; details: 32P-labelled pGln substrate, room temperature; read-out: N. gonorrhoeae Gel assay IC50(μM) (Example 16)
T1 sequence (Q5F4W3 1-121): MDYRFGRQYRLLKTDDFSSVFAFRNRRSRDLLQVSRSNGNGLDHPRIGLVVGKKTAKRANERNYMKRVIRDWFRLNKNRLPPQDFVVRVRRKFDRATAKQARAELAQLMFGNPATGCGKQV
Method: RNase P Inhibition Polyacrylamide Gel Assay
The substrate, the precursor of tRNA^Gln, (pGln), from Synechocystis (Pascual and Vioque, 1999), was synthesized in vitro from the corresponding cDNA by T7 RNA polymerase in the presence of α^32P-GTP. Each control RNase P reaction of 10 μl contained 50 mM Tris-HCl (pH 7.8), 10 mM MgCl2, 100 mM NH4Cl, 1 mM dithiothreitol, and 0.4-1.0 pmol pGln substrate, radiolabeled to a specific activity of 1000-10,000 cpm/pmol. The reaction mixture, containing 0.1-1 nM holoenzyme, was incubated for 5-60 min at room temperature (18-24° C.), and the reaction was terminated by addition of an equal volume of 40 mM EDTA/8 M urea. The samples were electrophoresed in denaturing 8% polyacrylamide gels. The activity was quantified by exposure of the gel to a phosphorimaging screen. For test reactions that require the addition of compounds, the RNA subunits were pre-incubated with compound for 10 min at room temperature in the presence of buffer, followed by addition of the protein subunit. After a further 10 minutes of incubation, the radiolabeled substrate was added, and the reaction initiated. Products were analyzed as just described. The IC50 was the concentration of compound that was required to inhibit RNase P activity by 50%.

[2] = Cellular toxicity assay (MTS) on PBMC; format: cell-based, human; details: human, peripheral blood mononuclear cells (PBMC); 24 hours incubation, MTS reagent; read-out: PBMC's TC50
Method: Compounds of the invention (see Table 6) were assayed for cellular toxicity as follows. Whole blood was drawn from a volunteer, and the red cells were separated from the buffy coat cells by centrifugation over ficoll-paque. The resulting peripheral blood mononuclear cells (PBMC) were collected from the interface and washed extensively with PBS by centrifugation to remove platelets and cellular debris. The cells were then plated in 96-well tissue culture plates at a density of 5×10^5 cells per mL at 200 μL per well. After an hour incubation, the candidate compounds were added at the appropriate concentrations diluted from DMSO stocks into assay buffer (RPMI medium supplemented with 10% FCS). The cells were incubated at 37° C., 100% humidity and 5% CO2 for 24 hours at which time MTS reagent was added per the manufacturer's (Promega) instructions. After 2-3 hours incubation the optical density of the wells was read on a spectrophotometer. […] The data are evaluated using equation 2 as described in Example 17, where bacterial cells are replaced by PBMC cells in the measurements. The data describes the toxicity of these compounds to a representative human cell population (PBMC's).

[3] = test system: N. gonorrhoeae; assay: Bacterial inhibition assay (growth, MTS readout); format: cell-based; details: CAMHB-3% LHB medium, 35° C., 5% CO2, 24 hours
Method: (§1) Compounds of the invention (see Table 5) were assayed for their ability to inhibit bacterial growth. Compounds were diluted from 10 mM DMSO stocks to 3 mM and 1 mM in DMSO. The compounds were further diluted from these stocks into saline for 200, 120, and 20 μM stocks. Control antibiotics were diluted similarly. Overnight cultures of bacteria were made in the following manner. N. gonorrhea was streaked onto a chocolate agar plate and incubated at 35° C./5% CO2. Rather than make an overnight culture of S. pyogenes, a loopful of S. pyogenes from a blood plate or a stock plate was used the following day for direct cell suspension.
(§2) On the following day bacteria were prepared by dilution into saline with O.D. […] readings taken to determine the concentration of the bacteria. CFUs (colony forming units) were determined using the formula: CFU/mL=OD625×(1.5×10^8 CFU/mL/OD McFarland std)×dilution. The four bacterial cultures were diluted initially to 5.5×10^7 CFU/mL. The bacteria were then further diluted into medium to 5.5×10^5 CFU/mL for S. pyogenes and 5.5×10^6 CFU/mL for N. gonorrhea. S. pyogenes and N. gonorrhea were grown in CAMHB-3% LHB medium. The bacteria were added one per plate at 200 μL per well. Compounds were added in 10 μL aliquots for final concentrations of 10, 3, and 1 μM in duplicate. Control antibiotics, penicillin for S. pyogenes and ciprofloxacin for N. gonorrhea, were added from 0.8 mg/ml to 0.003 mg/ml. Plates were incubated at 35° C. with O2 for 16-20 hours for S. pyogenes, and read at OD665 in a Victor2 plate reader. Plates were incubated at 35° C. with 5% CO2 for 24 hours for N. gonorrhea at which time 40 μL of MTS reagent is added per well and incubated for 1 hour in same incubator. The plates were read at OD490. Compounds were tested at 1 μM, 3 μM, and 10 μM concentrations. The results, which are expressed as a percentage of the control, were calculated using equation 2. In this equation, O.D. is optical density; (O.D. compounds+bacteria) is the optical density observed for bacteria grown in the presence of a compound of the invention; (O.D. blank) is the optical density in the absence of bacteria; and (O.D. bacteria) is the optical density observed for bacteria growing uninhibited. Other RNase P inhibitors may be tested similarly using any bacteria of interest. [formula]

[4] = molecular target: N. gonorrhea RNase P (M1 RNA + C5 protein) (Neisseria gonorrhoeae, UniProt Q5F4W3); assay: Time resolved fluorescence (TRF) RNase P inhibition assay; format: biochemical; details: 30 min enzyme reaction, ptGLN substrate
From the text: The ability of compounds of the invention to inhibit RNase P enzymes can be assessed by standard techniques. For example, the cleavage of ptRNA^Gln by the enzyme N. Gonorrhea RNase P, can be monitored in the presence and absence of a candidate compound as described in the Example 15. The progress of the RNase P-mediated cleavage reaction can be assessed by measuring the […] hybridized to the cleaved substrate.
Time Resolved Fluorescence RNase P Inhibition Assay
96-well Nunc MaxiSorp FluoroNunc plates were coated with 50 μl/well of 1 μg/ml of streptavidin in base buffer (150 mM KCl, 5 mM MgCl2, 50 mM Tris, pH 7.6) and incubated overnight. The plates were washed using TRF.96 protocol, and then blocked with 150 μl of a 1 mg/ml BSA solution in base buffer and incubated with shaking for sixty minutes. The plates were then washed twice with base buffer plus 0.01% Tween20. 50 μl of 40 nM T17-bt (biotinylated DNA oligonucleotide complementary to the RNaseP substrate leader sequence used to capture intact RNaseP substrate) was then added to all wells, and the plates were incubated with shaking for 1 hr.
A 0.4 nM solution of N. gonorrhea M1 RNA was made from a 1 μM stock solution. A 0.5 nM solution of N. gonorrhea C5 protein is made by diluting a 10 μM stock. ΔUL-ptGLN UTP-bt (10 μM stock) was diluted into PA buffer for a concentration of 40 nM.
Compounds were serially diluted in DMSO from 20 mM stocks to 6, 2, 0.6, 0.2, and 0.06 mM dilutions. These titrations were then diluted (2 μl to 100) in PA buffer, and 12.5 μl of each concentration was added in duplicate to a 96-well V-bottom polypropylene plate. The highest concentration was put in row G and the lowest in row B. Rows A & H received 12.5 μl of DMSO/PA buffer.
The enzyme reaction was initiated in the V-bottom polypropylene plates containing compound dilutions by adding 12.5 μl of the N. gonorrhea M1 solution to rows A-G. PA buffer was added to row H. 12.5 μl of the C5 solution was added similarly to the M1 solutions. 12.5 μl of the substrate solution was then added to all wells. The plates were incubated for 30 minutes at which time 12.5 μl of stop buffer was added to all wells. (Stop buffer: 500 μg/ml polyC/50 nM SA-Eu in 335 mM MgCl2 PA buffer).
The T17-biotin-coated plate was washed three times, and 37.5 μl of 75 mM MgCl2 PA buffer was added to each well. After 30 minutes incubation with the stop buffer, 12.5 μl from all of the enzyme reaction wells was transferred to the T17 plates. The plates were then incubated for 1.5 hr at room temperature with shaking. The plates were washed three times and 40 μl of Delfia enhancement solution (Wallac Oy) was added to all wells. The plates were then read on the Victor 2 plate reader.

[5] = test system: S. pyogenes; assay: Bacterial inhibition assay (growth, OD readout); format: cell-based; details: CAMHB-3% LHB medium, 35° C., 16-20 hours
Method: as §1, §2

[6] = read-out: N. gonorrhoeae TRF IC50(μM) (Example 15)

| Structure (SMILES) | IC50 [1] | CC50 at 24 h [2] [µM] | MIC ([3]; Neisseria gonorrhoeae) [µM] | IC50 [4, 6] [µM] | MIC ([5]; Streptococcus pyogenes) [µM] | IC50 ([4]; N. gonorrhoeae TRF IC50(μM) (Example 15)) [µM] | MIC [3] [µM] | MIC [5] [µM] | S. pyogenes MIC(μM) [5] |
| --- | --- | --- | --- | --- | --- | --- | --- | --- | --- |
| CC(=NNC(=N)N)c1ccc(C(=O)Nc2cccc(C(C)=NNC(=N)N)c2)cc1 [MES 10648, Bisguanylhydrazone of 4-acetyl-N-(3-acetylphenyl)benzamide] | 2 µM | > 100 | 10 (≈ 3.93 µg/mL) | 5 | 1 (≈ 0.393 µg/mL) |  |  |  |  |
| CC(=NNC(=N)N)c1cccc(NC(=O)[C@@H]2Cc3ccccc3CN2C(=O)c2cccc(C(C)=NNC(=N)N)c2)c1 [MES 10848, Bisguanylhydrazone of (S)-2-(3-acetylbenzoyl)-N-(3-acetylphenyl)tetrahydro-isoquinoline-3-carboxamide] | 6 µM | > 100 | 100 (≈ 55.3 µg/mL) | 3 | 10 (≈ 5.53 µg/mL) |  |  |  |  |
| CC(=NNC(=N)N)c1cccc(NC(=O)[C@H](Cc2ccc(-c3ccccc3)cc2)NC(=O)c2ccccc2)c1 [MES 10910, Guanylhydrazone of (S)-1-benzoyl-N-(3-acetylphenyl) biphenylalaninamide] |  |  |  | 7 |  |  |  |  |  |
| CC(=NNC(=N)N)c1cccc(NC(=O)[C@H](CCc2ccccc2)NC(=O)c2cccc(I)c2)c1 [MES 10914, Guanylhydrazone of (S)-1-(3-iodobenzoyl)-N-(3-acetylphenyl) homophenyl-alaninamide] |  |  |  | 6 |  |  |  |  |  |
| CC(=NNC(=N)N)c1cccc(NC(=O)c2cccc(-c3ccccc3)c2)c1 [MES 10915, Guanylhydrazone of N-(3-acetylphenyl)-3-biphenylcarboxamide] | 10 µM |  |  |  |  | 16 |  |  |  |
| CC(=NNC(=N)N)c1cccc(NC(=O)[C@@H]2CCCN2C(=O)c2cccc(C(C)=NNC(=N)N)c2)c1 [MES 10926, Bisguanylhydrazone of (S)-1-(3-acetylbenzoyl)-N-(3-acetylphenyl) prolinamide] | 100 µM | > 100 | 80 (≈ 39.2 µg/mL) | 43 | 30 (≈ 14.7 µg/mL) |  |  |  |  |
| CC(=NNC(=N)N)c1cccc(NC(=O)c2ccc(-c3ccccc3)cc2)c1 [MES 10938, Guanylhydrazone of N-(3-acetylphenyl)-4-biphenylcarboxamide] |  |  |  | 80 |  |  |  |  |  |
| CC(=NNC(=N)N)c1ccc(NC(=O)c2ccc(C(C)=NNC(=N)N)cc2)cc1 [MES 10948, Bisguanylhydrazone of 4-acetyl-N-(4-acetylphenyl)benzamide] | 2 µM and 1 µM | > 100 | 3 (≈ 1.18 µg/mL) | 3 | 0.3 (≈ 0.118 µg/mL) |  |  |  |  |
| CC(=NNC(=N)N)c1cccc(NC(=O)Nc2cccc(C(C)=NNC(=N)N)c2)c1 [MES 10949, Bisguanylhydrazone of N,N-bis(3-acetylphenyl)urea] | 30 µM | > 100 | 100 (≈ 40.8 µg/mL) | 6 | 30 (≈ 12.3 µg/mL) |  |  |  |  |
| CC(=NNC(=N)N)c1ccc(NC(=O)Nc2ccc(C(C)=NNC(=N)N)cc2)cc1 [MES 10950, Bisguanylhydrazone of N,N′-bis(4-acetylphenyl)urea] | 7 µM | > 100 | 30 (≈ 12.3 µg/mL) | 6 | 10 (≈ 4.08 µg/mL) |  |  |  |  |
| N=C1/C(=C/c2ccc(-c3ccc(C(=O)O)cc3)o2)C(=O)N=C2SC(c3ccccc3)=NN12 [MES 110392] |  |  |  | 2 |  |  | 100 (≈ 44.2 µg/mL) | >100 |  |
| CC(=O)Oc1cccc2ccc(/C=C/c3ccc(C(=O)O)cc3)nc12 [MES 110394] |  |  |  | 9 |  |  | 10 (≈ 3.33 µg/mL) |  | >100− μM |
| N=C1/C(=C/c2ccc(-c3ccc(C(=O)O)cc3)o2)C(=O)N=C2SC(Cc3cccs3)=NN12 [MES 110410] |  |  |  | 15 |  |  | 30 (≈ 13.9 µg/mL) | >100 |  |
| O=C(O)c1ccc(-c2nc(-c3ccc(-c4nc(-c5ccc(C(=O)O)cc5)[nH]c4-c4ccccc4)cc3)c(-c3ccccc3)[nH]2)cc1 [MES 110417] |  |  |  | 10 |  |  | 30 (≈ 18.1 µg/mL) | >100 |  |
| O=C(O)c1ccc(-c2ccc(/C=C3\S/C(=N\c4ccccc4)N(c4ccccc4)C3=O)o2)cc1 [MES 110430] |  |  |  | 7 |  |  | 30 (≈ 14 µg/mL) | >100 |  |
